Reference: patent US20230295152A1 (SENDA BIOSCIENCES, INC., priority 2019, published 2023)
Blank lines part the entries; values can stand above or below the compound they belong to.

Key:
AHR = biological target: T1, AHR (Homo sapiens, UniProt P35869); assay: DRE-Luciferase Reporter Assay, HepG2 AhR-Lucia reporter cells; format: cell-based; conditions: with AHR activating ligand at EC50, read-out: HepG2-Luc IC50
T1 construct: other cell line with a DRE-luciferase reporter stably transfected; endogenous in cells; host or cells: HepG2 AhR-Lucia reporter cells
T1 sequence (P35869 11-848): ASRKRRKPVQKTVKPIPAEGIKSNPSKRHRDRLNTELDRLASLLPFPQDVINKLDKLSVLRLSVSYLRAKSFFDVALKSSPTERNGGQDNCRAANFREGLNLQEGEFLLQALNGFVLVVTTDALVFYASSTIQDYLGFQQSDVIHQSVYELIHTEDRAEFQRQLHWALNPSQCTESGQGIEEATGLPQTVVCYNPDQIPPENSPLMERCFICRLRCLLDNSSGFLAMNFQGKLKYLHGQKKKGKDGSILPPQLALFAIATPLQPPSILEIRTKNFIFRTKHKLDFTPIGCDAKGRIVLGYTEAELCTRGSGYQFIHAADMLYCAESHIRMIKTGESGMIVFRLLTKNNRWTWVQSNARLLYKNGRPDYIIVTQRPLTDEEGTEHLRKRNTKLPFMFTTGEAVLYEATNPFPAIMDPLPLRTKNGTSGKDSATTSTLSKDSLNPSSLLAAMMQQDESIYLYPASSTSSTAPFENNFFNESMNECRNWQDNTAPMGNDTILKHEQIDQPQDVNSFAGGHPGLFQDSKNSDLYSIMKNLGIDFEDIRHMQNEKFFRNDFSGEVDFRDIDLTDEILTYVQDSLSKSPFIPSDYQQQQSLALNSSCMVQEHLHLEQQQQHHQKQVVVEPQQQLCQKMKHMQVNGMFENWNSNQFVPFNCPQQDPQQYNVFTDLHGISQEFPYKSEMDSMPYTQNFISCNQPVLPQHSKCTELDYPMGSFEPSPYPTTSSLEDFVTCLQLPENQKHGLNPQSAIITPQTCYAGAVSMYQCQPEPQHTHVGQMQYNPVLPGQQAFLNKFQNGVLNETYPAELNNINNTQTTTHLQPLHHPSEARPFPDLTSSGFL
In short: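 Antagonism read as inhibition of agonist-driven secreted luciferase in stably DRE-reporter-transfected cells such as HepG2 AhR-Lucia. Agonist ligand at EC50 concentration added 1 hr post-plating alongside antagonist (log series, top 100 uM); supernatant read at 24 or 48 h, IC50 derived against agonist-only maximum.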

[1] = Hepatocyte Stability Assay, rat; format: in vitro ADME; conditions: for Rat hepatocyte clearance: rat hepatocytes; for Suspension Rat heps Clint (% Qh): suspension rat hepatocytes; as to all read-outs here: tested at 1 µM
Experimental: • Preparation of working solutions: 10 mM stock solutions of test compound and positive control were prepared in DMSO. In separate conical tubes, the 10 mM solution of test compound and the positive control were diluted to 100 μM by combining 198 μL of 50% acetonitrile/50% water and 2 μL of 10 mM stock.
Preparation of Hepatocytes: Incubation medium (William's E Medium supplemented with GlutaMAX) and hepatocyte thawing medium were placed in a 37° C. water bath and allowed warming for at least 15 minutes prior to use. A vial of cryopreserved hepatocytes was transferred from storage, ensuring that vials remained at cryogenic temperatures until thawing process ensued. Cells were thawed by placing the vial in a 37° C. water bath and gently shaking the vials for 2 minutes. After thawing was completed, vial was sprayed with 70% ethanol and transferred to a biosafety cabinet. Wide-bore pipette tip were used to transfer hepatocytes into 50 mL conical tube containing thawing medium. The 50 mL conical tube were placed into a centrifuge and spun at 100 g for 10 minutes. Upon completion of spin, thawing medium was aspirated and resuspended hepatocytes in enough incubation medium to yield ˜1.5×10^6 cells/mL. Using an AO/PI Staining, cells were counted and the viable cell density was determined. Cells with poor viability (<75% viability) were determined to be not acceptable for use. Cells were diluted with incubation medium to a working cell density of 0.5×10^6 viable cells/mL.
Procedure for Stability Determination: 198 μL of hepatocytes were pipetted into each wells of a 96-well non-coated plate. The plate was placed in the incubator to allow the hepatocytes to warm for 10 minutes. 2 μL of the 100 μM test compound or positive control solutions were pipetted into respective wells of the 96-well non-coated plate to start the reaction. The plate was returned to the incubator for the designed time points. Well contents was transferred in 25 μL aliquots at time points of 0, 15, 30, 60, 90 and 120 minutes. The aliquots were then mixed with 6 volumes (150 μL) of acetonitrile containing internal standard, IS (100 nM alprazolam, 200 nM caffeine and 100 nM tolbutamide) to terminate the reaction. The mixture was vortex for 5 minutes. Samples were centrifuged for 45 minutes at 3,220 g. An aliquot of 100 μL of the supernatant was diluted by 100 μL ultra-pure water, and the mixture was used for LC/MS/MS analysis. All incubations were performed in duplicate.
Data Analysis: All calculations were carried out using Microsoft Excel. Peak areas were determined from extracted ion chromatograms. In vitro half-life (t1/2) of parent compound was determined by regression analysis of the percent parent disappearance vs. time curve.
The in vitro half-life (in vitro t1/2) was determined from the slope value:
Conversion of the in vitro t1/2 (in min) into the in vitro intrinsic clearance (in vitro CLint, in μL/min/1×10^6 cells) was done using the following equation (mean of duplicate determinations):
V=incubation volume(0.2 mL);
N=number of hepatocytes per well(0.1×10^6 cells).
“+++” indicates a CLint value less than 20 mL/min/Kg, “++” indicates a CLint between 20 and 50 mL/min/Kg, and “+” indicates an CLint above 50 mL/min/Kg.

Structure (SMILES): C[C@@H](CO)n1cnc2c(-c3cccc(F)c3)nc(-c3ccc(Cl)cc3)cc2c1=O [Compound 7]
- IC50 (AHR): < 100 nM
- Rat hepatocyte clearance [1]: ++ (“++” indicates a CLint between 20 and 50 mL/min/Kg)

Structure (SMILES): CC(C)(O)Cn1cnc2c(-c3cccnc3)nc(-c3ccc(C(F)(F)F)nc3)cc2c1=O [Compound 9]
- IC50 (AHR): < 100 nM
- Rat hepatocyte clearance [1]: +++ (“+++” indicates a CLint value less than 20 mL/min/Kg)
- Suspension Rat heps Clint (% Qh) [1]: < 24 % Qh

Structure (SMILES): C[C@@H](CO)n1cnc2c(-c3cccnc3)nc(-c3ccc(C(F)(F)F)nc3)cc2c1=O [Compound 12]
- IC50 (AHR): < 100 nM
- Rat hepatocyte clearance [1]: +++ (“+++” indicates a CLint value less than 20 mL/min/Kg)

Structure (SMILES): CC(C)(O)Cn1cnc2c(-c3cccnc3)nc(-c3ccc(C(F)(F)F)cc3)cc2c1=O [Compound 16]
- IC50 (AHR): < 100 nM
- Rat hepatocyte clearance [1]: +++ (“+++” indicates a CLint value less than 20 mL/min/Kg)

Structure (SMILES): Cc1ccc(-c2cc3c(=O)n([C@@H](C)CO)cnc3c(-c3cccnc3)n2)cc1 [Compound 17, (S)-3-(1-hydroxypropan-2-yl)-8-(pyridin-3-yl)-6-(p-tolyl)pyrido[3,4-d]pyrimidin-4(3H)-one]
- IC50 (AHR): < 100 nM
- Rat hepatocyte clearance [1]: + (“+” indicates an CLint above 50 mL/min/Kg)

Structure (SMILES): C[C@@H](CO)n1cnc2c(-c3cnn(C)c3)nc(-c3ccc(Cl)cc3)cc2c1=O [Compound 27]
- IC50 (AHR): < 100 nM
- Rat hepatocyte clearance [1]: +++ (“+++” indicates a CLint value less than 20 mL/min/Kg)

Structure (SMILES): C[C@H](n1cnc2c(-c3cnn(C)c3)nc(-c3ccc(Cl)cc3)cc2c1=O)C(C)(C)O [Compound 30]
- IC50 (AHR): < 100 nM
- Rat hepatocyte clearance [1]: ++ (“++” indicates a CLint between 20 and 50 mL/min/Kg)

Structure (SMILES): C[C@@H](n1cnc2c(-c3cnn(C)c3)nc(-c3ccc(Cl)cc3)cc2c1=O)C(C)(C)O [Compound 31]
- IC50 (AHR): < 100 nM
- Rat hepatocyte clearance [1]: ++ (“++” indicates a CLint between 20 and 50 mL/min/Kg)

Structure (SMILES): C[C@@H](n1cnc2c(-c3cccnc3)nc(-c3ccc(Cl)cc3)cc2c1=O)C(C)(C)O [Compound 33]
- IC50 (AHR): < 100 nM
- Rat hepatocyte clearance [1]: ++ (“++” indicates a CLint between 20 and 50 mL/min/Kg)

Structure (SMILES): C[C@@H](CO)n1cnc2c(-n3ccnc3)nc(-c3ccc(OC(F)(F)F)cc3)cc2c1=O [Compound 44, (S)-3-(1-hydroxypropan-2-yl)-8-(1H-imidazol-1-yl)-6-(4-(trifluoromethoxy)-phenyl)pyrido[3,4-d]pyrimidin-4(3H)-one]
- IC50 (AHR): < 100 nM
- Rat hepatocyte clearance [1]: +++ (“+++” indicates a CLint value less than 20 mL/min/Kg)

Structure (SMILES): C[C@@H](CO)n1cnc2c(-c3cccnc3)nc(-c3ccc(C(F)(F)F)cn3)cc2c1=O [Compound 46, (S)-3-(1-hydroxypropan-2-yl)-8-(pyridin-3-yl)-6-(5-(trifluoromethyl)pyridin-2-yl)pyrido[3,4-d]pyrimidin-4(3H)-one]
- IC50 (AHR): < 100 nM
- Rat hepatocyte clearance [1]: +++ (“+++” indicates a CLint value less than 20 mL/min/Kg)
- Suspension Rat heps Clint (% Qh) [1]: < 24 % Qh

Structure (SMILES): Cn1cc(-c2nc(-c3ccc(C(F)(F)F)nc3)cc3c(=O)n(CC(C)(C)O)cnc23)cn1 [Compound 60]
- IC50 (AHR): < 100 nM
- Rat hepatocyte clearance [1]: +++ (“+++” indicates a CLint value less than 20 mL/min/Kg)

Structure (SMILES): C[C@@H](CO)n1cnc2c(-n3ccnc3)nc(-c3ccc(C(F)(F)F)cn3)cc2c1=O [Compound 162, (S)-3-(1-hydroxypropan-2-yl)-8-(1H-imidazol-1-yl)-6-(5-(trifluoromethyl)pyridin-2-yl)pyrido[3,4-d]pyrimidin-4(3H)-one]
- IC50 (AHR): < 100 nM

The next lines start with results.

- IC50 (AHR): < 100 nM
Structure (SMILES): O=c1c2cc(-c3ccc(Cl)cc3)nc(-c3cccnc3)c2ncn1C[C@@H](O)C(F)(F)F (single isomer, unassigned) [185 enantiomer 1]
- Rat hepatocyte clearance [1]: ++ (“++” indicates a CLint between 20 and 50 mL/min/Kg)

- IC50 (AHR): < 100 nM
Structure (SMILES): O=c1c2cc(-c3ccc(Cl)cc3)nc(-c3cccnc3)c2ncn1C[C@H](O)C(F)(F)F (single isomer, unassigned) [185 enantiomer 2]
- Rat hepatocyte clearance [1]: ++ (“++” indicates a CLint between 20 and 50 mL/min/Kg)

- IC50 (AHR): < 100 nM
Structure (SMILES): C[C@@H](CO)n1cnc2c(-c3cncc(F)c3)nc(-c3ccc(OC(F)(F)F)cc3)cc2c1=O [Compound 1, (S)-8-(5-fluoropyridin-3-yl)-3-(1-hydroxypropan-2-yl)-6-(4-(trifluoromethoxy)phenyl)pyrido[3,4-d]pyrimidin-4(3H)-one]
- Rat hepatocyte clearance [1]: ++ (“++” indicates a CLint between 20 and 50 mL/min/Kg)

- IC50 (AHR): < 100 nM
Structure (SMILES): C[C@@H](CO)n1cnc2c(-c3cccc(F)c3)nc(-c3ccc(C(F)(F)F)nc3)cc2c1=O [Compound 8]
- Rat hepatocyte clearance [1]: ++ (“++” indicates a CLint between 20 and 50 mL/min/Kg)

- IC50 (AHR): < 100 nM
Structure (SMILES): CC(C)(O)Cn1cnc2c(-c3cccnc3)nc(-c3ccc(Cl)cc3)cc2c1=O [Compound 18]
- Rat hepatocyte clearance [1]: +++ (“+++” indicates a CLint value less than 20 mL/min/Kg)

- IC50 (AHR): < 100 nM
Structure (SMILES): Cn1cc(-c2nc(-c3ccc(Cl)cc3)cc3c(=O)n(CC(C)(C)O)cnc23)cn1 [Compound 21]
- Rat hepatocyte clearance [1]: +++ (“+++” indicates a CLint value less than 20 mL/min/Kg)

- IC50 (AHR): < 100 nM
Structure (SMILES): C[C@@H](CO)n1cnc2c(-c3cccnc3)nc(-c3ccc(OC(F)(F)F)cc3)cc2c1=O [Compound 22]
- Rat hepatocyte clearance [1]: ++ (“++” indicates a CLint between 20 and 50 mL/min/Kg)

- IC50 (AHR): < 100 nM
Structure (SMILES): C[C@@H](CO)n1cnc2c(-c3cccc(F)c3)nc(-c3ccc(C(F)(F)F)cn3)cc2c1=O [Compound 47, (S)-8-(3-fluorophenyl)-3-(1-hydroxypropan-2-yl)-6-(5-(trifluoromethyl)pyridin-2-yl)pyrido[3,4-d]pyrimidin-4(3H)-one]
- Rat hepatocyte clearance [1]: +++ (“+++” indicates a CLint value less than 20 mL/min/Kg)

- IC50 (AHR): < 100 nM
Structure (SMILES): C[C@@H](CO)n1cnc2c(-n3ccnc3)nc(-c3ccc(C(F)(F)F)nc3)cc2c1=O [Compound 163, (S)-3-(1-hydroxypropan-2-yl)-8-(1H-imidazol-1-yl)-6-(6-(trifluoromethyl)pyridin-3-yl)pyrido[3,4-d]pyrimidin-4(3H)-one]

- IC50 (AHR): < 100 nM
Structure (SMILES): C[C@@H](CO)n1cnc2c(N3CCCCC3)nc(-c3ccc(Cl)cc3)cc2c1=O [Compound 177, (S)-6-(4-chlorophenyl)-3-(1-hydroxypropan-2-yl)-8-(piperidin-1-yl)pyrido[3,4-d]pyrimidin-4(3H)-one]

- IC50 (AHR): > 500 nM
Structure (SMILES): Cc1nc(-c2cc3c(=O)n([C@@H](C)CO)cnc3c(-c3cccnc3)n2)cs1 [Compound 183, (S)-3-(1-hydroxypropan-2-yl)-6-(2-methylthiazol-4-yl)-8-(pyridin-3-yl)pyrido[3,4-d]pyrimidin-4(3H)-one]
